In brackets after ≈: the same amount, converted by molar mass.

For one assay, the system named is M. canis TIMM0760. Briefly: Measurement of antimycotic activity (minimum inhibitory concentration, MIC) against dermatophyte. In kind it is cell-based. As to conditions: Microsporum canis, 168 h, Sabouraud's agar pH=5.9, 27° C., 1 week. The method, then:
(§1) The antimycotic activity of the compounds of the invention against dermatophyte was examined.
(§2) More particularly, the test dermatophyte strains shown in Tables 9 and 10 below were cultivated in advance on a slant culture of Sabouraud's agar medium (manufactured by Nissui Seiyaku Co., Ltd.; 1.0% peptone, 4.0% glucose, 1.5% agar, pH=5.9) at 27° C. for 2 weeks to allow them to grow conidia sufficiently. Then, sterilized physiological saline containing 0.05 weight/volume % of Tween 80 was added to the culture and while rubbing the surface of the culture with a platinum loop, the conidia were separated and caused to float. Using a hemocytometer, the filtrate was adjusted with sterilized physiological saline such that the concentration of conidia was 10^6 cells/ml, which was used as a test microbe liquid.
(§3) On the other hand, PR compounds and AD compounds (test drugs) of the present invention obtained in the examples described above were taken each in an amount of 10 mg, and 1 ml of dimethyl sulfoxide was added thereto to form a stock solution, of which 500 μl was taken and 500 μl of dimethyl sulfoxide was added thereto to prepare a 2-fold dilution. The same operation was repeated to prepare 13-stages ranging from 10 to 0.0025 mg/ml (final concentration of test system 100 to 0.025 μg/ml) of diluted drug solutions. Solutions with various diluted concentrations of test drug were each dispensed in sterilized petri dish with an amount of 100 μl. Then, 10 ml of sterile-dissolved Sabouraud's agar medium (1.0% peptone, 4.0% glucose, 1.5% agar, pH=5.9) was added, well mixed and solidified. Then, 5 μl of the test microbe solution previously adjusted were added using a microplanter, respectively.
(§4) The results are shown in Table 9 for PR compounds and in Table 10 for AD compounds, respectively. In the column of Compound No. in Tables 9 and 10, "PR-" or "AD-" were omitted.
The MIC is the smallest concentration in the dilution series that meets the test's criterion for growth inhibition. High values mean weaker potency, low ones greater potency. As for `C=C(CN(C)Cc1ccc(C(C)(C)C)cc1)c1ccc(C)cc1C` [Compound AD-046, N-(4-tert-butylbenzyl)-N-methyl-[2-(2,4-dimethylphenyl)-2-propenyl]amine], 6.25 µg/mL (≈ 19.4 µM) was the least that counted as inhibitory (MIC).
Same read-out and setting: as for `C=C(CN(C)Cc1ccc(C(C)(C)C)cc1)c1cccc([N+](=O)[O-])c1` [Compound AD-037, N-(4-tert-butylbenzyl)-N-methyl-[2-(3-nitrophenyl)-2-propenyl]amine], the figure is 0.78 µg/mL (≈ 2.3 µM); as for `CN(C/C=C/C#CC(C)(C)C)CC(=O)c1ccccc1O` [Compound PR-1620, Trans-2-[N-(6,6-dimethyl-2-hepten-4-ynyl)-N-methylamino]-2'-hydroxyacetophenone], 12.5 µg/mL (≈ 43.8 µM).

A further assay concerns M. gypseum IF08231. The assay is described as above. In kind it is cell-based. As to conditions: Nannizzia gypsea, 168 h, Sabouraud's agar pH=5.9, 27° C., 1 week. As to the method: as §1, §2, §3, §4
`C=C(CN(C)Cc1ccc(C(C)(C)C)cc1)c1ccc(C)cc1C` [Compound AD-046, N-(4-tert-butylbenzyl)-N-methyl-[2-(2,4-dimethylphenyl)-2-propenyl]amine] gave a minimum inhibitory concentration (MIC) of 12.5 µg/mL (≈ 38.9 µM).
On the same count and under the same terms, then `C=C(CN(C)Cc1ccc(C(C)(C)C)cc1)c1cccc([N+](=O)[O-])c1` [Compound AD-037, N-(4-tert-butylbenzyl)-N-methyl-[2-(3-nitrophenyl)-2-propenyl]amine], with 3.12 µg/mL (≈ 9.22 µM).
Still for that read-out and setting: as for `CN(C/C=C/C#CC(C)(C)C)CC(=O)c1ccccc1O` [Compound PR-1620, Trans-2-[N-(6,6-dimethyl-2-hepten-4-ynyl)-N-methylamino]-2'-hydroxyacetophenone], the figure is 25 µg/mL (≈ 87.6 µM).

The next assay relates to T. mentagrophytes IF05811. The assay is described as above. In kind it is cell-based. As to conditions: Trichophyton mentagrophytes, 168 h, Sabouraud's agar pH=5.9, 27° C., 1 week. The method, then: as §1, §2, §3, §4
Take `C=C(CN(C)Cc1ccc(C(C)(C)C)cc1)c1ccc(C)cc1C` [Compound AD-046, N-(4-tert-butylbenzyl)-N-methyl-[2-(2,4-dimethylphenyl)-2-propenyl]amine]: the MIC is 6.25 µg/mL (≈ 19.4 µM).
The molecule `C=C(CN(C)Cc1ccc(C(C)(C)C)cc1)c1cccc([N+](=O)[O-])c1` [Compound AD-037, N-(4-tert-butylbenzyl)-N-methyl-[2-(3-nitrophenyl)-2-propenyl]amine] had a minimal inhibitory concentration (MIC) of 1.56 µg/mL (≈ 4.61 µM). This MIC is about 4-fold lower than that of the molecule before.
On the same count and under the same terms, as for `CN(C/C=C/C#CC(C)(C)C)CC(=O)c1ccccc1O` [Compound PR-1620, Trans-2-[N-(6,6-dimethyl-2-hepten-4-ynyl)-N-methylamino]-2'-hydroxyacetophenone], the figure is 12.5 µg/mL (≈ 43.8 µM).

A further assay deals with T. mentagrophytes IF07552. Described as above. In kind it is cell-based. As to conditions: Trichophyton mentagrophytes, 168 h, Sabouraud's agar pH=5.9, 27° C., 1 week. As to the method: as §1, §2, §3, §4
`C=C(CN(C)Cc1ccc(C(C)(C)C)cc1)c1ccc(C)cc1C` [Compound AD-046, N-(4-tert-butylbenzyl)-N-methyl-[2-(2,4-dimethylphenyl)-2-propenyl]amine] registered an MIC of 6.25 µg/mL (≈ 19.4 µM).
The same measure, in the same setting: as for `C=C(CN(C)Cc1ccc(C(C)(C)C)cc1)c1cccc([N+](=O)[O-])c1` [Compound AD-037, N-(4-tert-butylbenzyl)-N-methyl-[2-(3-nitrophenyl)-2-propenyl]amine], the figure is 1.56 µg/mL (≈ 4.61 µM); as for `CN(C/C=C/C#CC(C)(C)C)CC(=O)c1ccccc1O` [Compound PR-1620, Trans-2-[N-(6,6-dimethyl-2-hepten-4-ynyl)-N-methylamino]-2'-hydroxyacetophenone], 6.25 µg/mL (≈ 21.9 µM).

The subject of another assay is T. mentagrophytes TIMM1177. The assay is described as above. As to conditions: Trichophyton mentagrophytes, 168 h, Sabouraud's agar pH=5.9, 27° C., 1 week. In kind it is cell-based. The method, then: as §1, §2, §3, §4
`C=C(CN(C)Cc1ccc(C(C)(C)C)cc1)c1ccc(C)cc1C` [Compound AD-046, N-(4-tert-butylbenzyl)-N-methyl-[2-(2,4-dimethylphenyl)-2-propenyl]amine]: the MIC came out at 12.5 µg/mL (≈ 38.9 µM).
Same read-out and setting: then `C=C(CN(C)Cc1ccc(C(C)(C)C)cc1)c1cccc([N+](=O)[O-])c1` [Compound AD-037, N-(4-tert-butylbenzyl)-N-methyl-[2-(3-nitrophenyl)-2-propenyl]amine], with 1.56 µg/mL (≈ 4.61 µM); and `CN(C/C=C/C#CC(C)(C)C)CC(=O)c1ccccc1O` [Compound PR-1620, Trans-2-[N-(6,6-dimethyl-2-hepten-4-ynyl)-N-methylamino]-2'-hydroxyacetophenone], with 12.5 µg/mL (≈ 43.8 µM).

The subject of a further assay is T. mentagrophytes TIMM1189. The assay is described as above. In kind it is cell-based. As to conditions: Trichophyton mentagrophytes, 168 h, Sabouraud's agar pH=5.9, 27° C., 1 week. As to the method: as §1, §2, §3, §4
`C=C(CN(C)Cc1ccc(C(C)(C)C)cc1)c1ccc(C)cc1C` [Compound AD-046, N-(4-tert-butylbenzyl)-N-methyl-[2-(2,4-dimethylphenyl)-2-propenyl]amine] gave an MIC of 12.5 µg/mL (≈ 38.9 µM).
For the molecule `C=C(CN(C)Cc1ccc(C(C)(C)C)cc1)c1cccc([N+](=O)[O-])c1` [Compound AD-037, N-(4-tert-butylbenzyl)-N-methyl-[2-(3-nitrophenyl)-2-propenyl]amine], the lowest concentration to inhibit growth (MIC) was 3.12 µg/mL (≈ 9.22 µM).
The same measure, in the same setting: as for `CN(C/C=C/C#CC(C)(C)C)CC(=O)c1ccccc1O` [Compound PR-1620, Trans-2-[N-(6,6-dimethyl-2-hepten-4-ynyl)-N-methylamino]-2'-hydroxyacetophenone], the figure is 12.5 µg/mL (≈ 43.8 µM).

Another assay concerns T. rubrum IF05808. Described as above. In kind it is cell-based. As to conditions: Trichophyton rubrum, 168 h, Sabouraud's agar pH=5.9, 27° C., 1 week. The method, then: as §1, §2, §3, §4
As to `C=C(CN(C)Cc1ccc(C(C)(C)C)cc1)c1ccc(C)cc1C` [Compound AD-046, N-(4-tert-butylbenzyl)-N-methyl-[2-(2,4-dimethylphenyl)-2-propenyl]amine], the MIC was 1.56 µg/mL (≈ 4.85 µM).
Same read-out and setting: then `C=C(CN(C)Cc1ccc(C(C)(C)C)cc1)c1cccc([N+](=O)[O-])c1` [Compound AD-037, N-(4-tert-butylbenzyl)-N-methyl-[2-(3-nitrophenyl)-2-propenyl]amine], with 0.78 µg/mL (≈ 2.3 µM); and `CN(C/C=C/C#CC(C)(C)C)CC(=O)c1ccccc1O` [Compound PR-1620, Trans-2-[N-(6,6-dimethyl-2-hepten-4-ynyl)-N-methylamino]-2'-hydroxyacetophenone], with 6.25 µg/mL (≈ 21.9 µM).

The next assay has as its system T. rubrum IF09185. Described as above. In kind it is cell-based. As to conditions: Trichophyton rubrum, 168 h, Sabouraud's agar pH=5.9, 27° C., 1 week. The method, then: as §1, §2, §3, §4
With `C=C(CN(C)Cc1ccc(C(C)(C)C)cc1)c1ccc(C)cc1C` [Compound AD-046, N-(4-tert-butylbenzyl)-N-methyl-[2-(2,4-dimethylphenyl)-2-propenyl]amine], the minimal inhibitory concentration (MIC) stood at 3.12 µg/mL (≈ 9.7 µM).
On to `C=C(CN(C)Cc1ccc(C(C)(C)C)cc1)c1cccc([N+](=O)[O-])c1` [Compound AD-037, N-(4-tert-butylbenzyl)-N-methyl-[2-(3-nitrophenyl)-2-propenyl]amine], for which the MIC is 0.78 µg/mL (≈ 2.3 µM). Compared with the last molecule, the MIC is about 4-fold lower.
On the same count and under the same terms, then `CN(C/C=C/C#CC(C)(C)C)CC(=O)c1ccccc1O` [Compound PR-1620, Trans-2-[N-(6,6-dimethyl-2-hepten-4-ynyl)-N-methylamino]-2'-hydroxyacetophenone], with 12.5 µg/mL (≈ 43.8 µM).

Another assay deals with T. violaceum TIMM1264. The assay is described as above. In kind it is cell-based. As to conditions: Trichophyton violaceum, 168 h, Sabouraud's agar pH=5.9, 27° C., 1 week. The method, then: as §1, §2, §3, §4
Regarding `C=C(CN(C)Cc1ccc(C(C)(C)C)cc1)c1ccc(C)cc1C` [Compound AD-046, N-(4-tert-butylbenzyl)-N-methyl-[2-(2,4-dimethylphenyl)-2-propenyl]amine], the MIC was 12.5 µg/mL (≈ 38.9 µM).
On the same count and under the same terms, then `C=C(CN(C)Cc1ccc(C(C)(C)C)cc1)c1cccc([N+](=O)[O-])c1` [Compound AD-037, N-(4-tert-butylbenzyl)-N-methyl-[2-(3-nitrophenyl)-2-propenyl]amine], with 3.12 µg/mL (≈ 9.22 µM).
`CN(C/C=C/C#CC(C)(C)C)CC(=O)c1ccccc1O` [Compound PR-1620, Trans-2-[N-(6,6-dimethyl-2-hepten-4-ynyl)-N-methylamino]-2'-hydroxyacetophenone] displayed a minimum inhibitory concentration (MIC) of 12.5 µg/mL (≈ 43.8 µM).

The values above are taken from patent US6329399A, “Antifungal amine derivatives and processing for producing the same” (Pola Chemical Industries, Inc., priority 1997, dated 2001).
